According to patent publication US7053070B2, “Pyrido[2,3-d]pyrimidine-2,7-diamine kinase inhibitors” (Warner-Lambert Company, priority 2000, dated 2006):
Counter-ions that a name gives are not always drawn.

What was measured:
cdk2/cyclinA = cdk2/cyclinA (Homo sapiens, UniProt P24941); test: Cyclin dependent kinase 2 assay (cdk2/cyclinA), 32P incorporation, filter plate; type: biochemical; conditions: retinoblastoma substrate, 12 mM ATP, 25° C., 15 minutes; read-out: Inhibition of Cdks: IC50 Cdk2/A
Method: (§1) Cyclin Dependent Kinase 1 and 2 Assays (cdk1/cyclinB, cdk2/cyclinA, cdk2/cyclinE)
(§2) Enzyme assays for IC50 determinations and kinetic evaluation are performed in a 96-well filter plate (Millipore MADVN6550) in a total volume of 0.1 mL of 20 mM TRIS (tris[hydroxymethyl]aminomethane), at pH 7.4, 50 mM NaCl, 1 mM dithiothreitol, 10 mM MgCl2, […] containing 0.25 μCi of [^32P]ATP, 20 ng of enzyme (either cdk1/B, cdk2/A, or cdk2E), 1 μg retinoblastoma and appropriate dilutions of the particular invention compound. All components except the ATP are added to the wells, and the plate is placed on a plate mixer for 2 minutes. The reaction is begun by addition of [^32P]ATP, and the plate is incubated at 25° C. for 15 minutes. The reaction is terminated by addition of 0.1 mL of 20% TCA. The plate is kept at 4° C. for at least 1 hour to allow the substrate to precipitate. The wells are then washed 5 times with 0.2 mL of 10% TCA and ^32P incorporation determined with a beta plate counter (Wallac Inc., Gaithersburg, Md.).

cdk4/cyclinD = cdk4/cyclinD (Homo sapiens, UniProt P11802); test: Cyclin Dependent Kinase 4 (cdk-4) Assay, 32P incorporation, filter plate; type: biochemical; conditions: retinoblastoma substrate, 25 μM ATP, 25° C., 15 minutes; read-out: Inhibition of Cdks: IC50 Cdk4D
Method: Cyclin Dependent Kinase 4 (cdk-4) Assay
Enzyme assays for IC50 determinations and kinetic evaluation are performed in 96-well filter plates (Millipore MADVN6550). The total volume is 0.1 mL containing a final concentration of 20 mM TRIS (tris[hydroxymethyl]aminomethane), at pH 7.4, 50 mM NaCl, 1 mM dithiothreitol, 10 mM MgCl2, 25 μM ATP containing 0.25 μCi of [^32P]ATP, 20 ng of cdk4, 1 μg of retinoblastoma, and appropriate dilutions of a compound of the present invention. All components except the ATP are added to the wells, and the plate is placed on a plate mixer for 2 minutes. The reaction is started by adding [^32P]ATP, and the plate is incubated at 25° C. for 15 minutes. The reaction is terminated by addition of 0.1 mL of 20% trichloroacetic acid (TCA). The plate is kept at 4° C. for at least 1 hour to allow the substrate to precipitate. The wells are then washed 5 times with 0.2 mL of 10% TCA and ^32P incorporation is determined with a beta plate counter (Wallac Inc., Gaithersburg, Md.).

cdk2/cyclinE = cdk2/cyclinE (Homo sapiens, UniProt P24941); test: Cyclin dependent kinase 2 assay (cdk2/cyclinE), 32P incorporation, filter plate; type: biochemical; conditions: retinoblastoma substrate, 12 mM ATP, 25° C., 15 minutes; read-out: Inhibition of Cdks: IC50 Cdk2/E
Method: as §1, §2

cdk1/cyclinB = cdk1/cyclinB (Homo sapiens, UniProt P06493); test: Cyclin dependent kinase 1 assay (cdk1/cyclinB), 32P incorporation, filter plate; type: biochemical; conditions: retinoblastoma substrate, 12 mM ATP, 25° C., 15 minutes; read-out: Inhibition of Cdks: IC50 Cdk1/B
Method: as §1, §2

cdk1/cyclinB, sequence (P06493 whole entry, species assumed): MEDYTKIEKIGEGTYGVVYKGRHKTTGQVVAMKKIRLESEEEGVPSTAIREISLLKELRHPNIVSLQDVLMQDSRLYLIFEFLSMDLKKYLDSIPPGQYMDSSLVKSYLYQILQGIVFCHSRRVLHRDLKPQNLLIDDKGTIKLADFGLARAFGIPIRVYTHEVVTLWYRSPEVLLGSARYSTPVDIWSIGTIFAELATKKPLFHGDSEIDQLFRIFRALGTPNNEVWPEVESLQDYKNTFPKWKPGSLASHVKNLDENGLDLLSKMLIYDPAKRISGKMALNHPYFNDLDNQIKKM
cdk1/cyclinB, sequence (P14635 whole entry partner, species assumed): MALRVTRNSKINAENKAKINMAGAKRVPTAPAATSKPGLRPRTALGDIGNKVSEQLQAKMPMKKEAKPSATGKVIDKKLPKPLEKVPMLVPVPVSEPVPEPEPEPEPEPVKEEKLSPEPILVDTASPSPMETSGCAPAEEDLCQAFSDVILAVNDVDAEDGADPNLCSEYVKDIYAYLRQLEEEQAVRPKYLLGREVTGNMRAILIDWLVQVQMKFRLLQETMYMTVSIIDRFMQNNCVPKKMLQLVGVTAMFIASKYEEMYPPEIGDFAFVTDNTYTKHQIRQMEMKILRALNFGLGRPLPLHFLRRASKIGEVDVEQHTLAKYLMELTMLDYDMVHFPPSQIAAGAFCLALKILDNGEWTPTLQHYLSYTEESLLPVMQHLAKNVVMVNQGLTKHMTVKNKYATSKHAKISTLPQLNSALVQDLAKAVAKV
cdk4/cyclinD, sequence (P11802 whole entry, species assumed): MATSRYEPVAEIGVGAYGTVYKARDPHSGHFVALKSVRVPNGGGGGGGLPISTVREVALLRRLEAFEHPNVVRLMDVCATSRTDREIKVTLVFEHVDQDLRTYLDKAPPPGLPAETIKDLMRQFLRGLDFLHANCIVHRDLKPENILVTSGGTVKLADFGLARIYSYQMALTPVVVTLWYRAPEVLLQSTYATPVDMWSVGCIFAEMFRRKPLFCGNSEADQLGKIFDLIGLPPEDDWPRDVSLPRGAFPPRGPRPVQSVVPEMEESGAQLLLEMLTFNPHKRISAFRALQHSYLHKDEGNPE
cdk4/cyclinD, sequence (P24385 whole entry partner, species assumed): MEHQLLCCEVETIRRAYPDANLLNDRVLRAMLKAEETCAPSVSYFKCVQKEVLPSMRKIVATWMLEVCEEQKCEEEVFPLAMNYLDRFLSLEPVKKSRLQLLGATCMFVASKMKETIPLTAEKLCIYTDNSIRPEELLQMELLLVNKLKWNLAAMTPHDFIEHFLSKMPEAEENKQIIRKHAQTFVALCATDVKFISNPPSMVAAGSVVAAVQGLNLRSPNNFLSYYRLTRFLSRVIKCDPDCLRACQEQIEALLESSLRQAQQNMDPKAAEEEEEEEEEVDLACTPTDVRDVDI

Row | SMILES | IC50 (cdk2/cyclinA) [nM] | IC50 (cdk4/cyclinD) [nM] | IC50 (cdk2/cyclinE) [nM] | IC50 (cdk1/cyclinB) [nM] | melting point
1 | O=C(Nc1ccc2cnc(Nc3ccc(N4CCNCC4)cc3)nc2n1)NC1CCCCC1 (as salt: salt) [Compound 9, 1-Cyclohexyl-3-[2-(4-piperazin-1-yl-phenylamino)-pyrido[2,3-d]pyrimidin-7-yl]-urea] | – | – | – | – | 200 °C (dec.)
2 | O=C(Nc1ccc2cnc(Nc3ccc(N4CCNCC4)cc3)nc2n1)NC1CCCC1 (as salt: salt) [Compound 51, 1-Cyclopentyl-3-[2-(4-piperazin-1-yl-phenylamino)-pyrido[2,3-d]pyrimidin-7-yl]-urea] | – | – | – | – | 210 to 213 °C (dec.)
3 | CC(C)(C)NC(=O)Nc1nc2nc(Nc3ccc(N4CCNCC4)cc3)ncc2cc1Br [Compound 91, 1-[6-Bromo-2-(4-piperazin-1-yl-phenylamino)-pyrido[2,3-d]pyrimidin-7-yl]-3-tert-butyl-urea] | > 5000 | 70 | > 5000 | > 5000 | –
4 | C[C@@H]1CN(c2ccc(Nc3ncc4cc(Br)c(NC(=O)NC5CCCCC5)nc4n3)cc2)C[C@H](C)N1 (as salt: salt) [Compound 95, 1-{6-Bromo-2-[4-(cis-3,5-dimethyl-piperazin-1-yl)-phenylamino]-pyrido[2,3-d]pyrimidin-7-yl}-3-cyclohexyl-urea] | – | – | – | – | 198 °C (dec.)
5 | CNC(=O)Nc1nc2nc(Nc3ccc(N4CCNCC4)cc3)ncc2cc1Br [Compound 93, 1-[6-Bromo-2-(4-piperazin-1-yl-phenylamino)-pyrido[2,3-d]pyrimidin-7-yl]-3-methyl-urea] | > 5000 | > 5000 | > 5000 | > 5000 | –
6 | CCc1cc2cnc(Nc3ccc(N4C[C@@H](C)N[C@@H](C)C4)cc3)nc2nc1NC(=O)NC(C)(C)C [Compound 121, 1-tert-Butyl-3-{2-[4-(cis-3,5-dimethyl-piperazin-1-yl)-phenylamino]-6-ethyl-pyrido[2,3-d]pyrimidin-7-yl}-urea] | > 5000 | 92 | > 5000 | > 5000 | –
7 | CCOC(=O)c1cc2cnc(Nc3ccc(N4CCNCC4)cc3)nc2nc1NC(=O)NC(C)(C)C [Compound 113, 7-(3-tert-Butyl-ureido)-2-(4-piperazin-1-yl-phenylamino)-pyrido[2,3-d]pyrimidine-6-carboxylic acid ethyl ester] | > 5000 | 3000 | > 5000 | > 5000 | –
8 | C[C@@H]1CN(c2ccc(Nc3ncc4cc(Br)c(NC(=O)NC(C)(C)C)nc4n3)cc2)C[C@H](C)N1 [Compound 94, 1-{6-Bromo-2-[4-(cis-3,5-dimethyl-piperazin-1-yl)-phenylamino]-pyrido[2,3-d]pyrimidin-7-yl}-3-tert-butyl-urea] | – | 101 | > 5000 | – | –
9 | C[C@@H]1CN(c2ccc(Nc3ncc4cc(Br)c(NC(=O)NC5CCCCC5)nc4n3)cc2)C[C@H](C)N1 [Compound 95, 1-{6-Bromo-2-[4-(cis-3,5-dimethyl-piperazin-1-yl)-phenylamino]-pyrido[2,3-d]pyrimidin-7-yl}-3-cyclohexyl-urea] | – | 310 | > 5000 | – | –
10 | CC(C)NC(=O)Nc1ccc2cnc(Nc3ccc(N4CCNCC4)cc3)nc2n1 (as salt: salt) [Compound 48, 1-Isopropyl-3-[2-(4-piperazin-1-yl-phenylamino)-pyrido[2,3-d]pyrimidin-7-yl]-urea] | – | – | – | – | 190 °C (dec.)
11 | Cc1cc2cnc(Nc3ccc(N4C[C@@H](C)N[C@@H](C)C4)cc3)nc2nc1NC(=O)NC(C)C [Compound 119, 1-{2-[4-(cis-3,5-Dimethyl-piperazin-1-yl)-phenylamino]-6-methyl-pyrido[2,3-d]pyrimidin-7-yl}-3-isopropyl-urea] | > 5000 | 1600 | > 5000 | > 5000 | –
12 | CC(C)(C)NC(=O)Nc1ccc2cnc(Nc3ccc(N4CCNCC4)cc3)nc2n1 (as salt: salt) [Compound 1, 1-tert-Butyl-3-[2-(4-piperazin-1-yl-phenylamino)-pyrido[2,3-d]pyrimidin-7-yl]-urea] | – | – | – | – | 215 °C (dec.)

More lines, now with the values ahead:

Row | IC50 (cdk2/cyclinA) [nM] | IC50 (cdk4/cyclinD) [nM] | IC50 (cdk2/cyclinE) [nM] | IC50 (cdk1/cyclinB) [nM] | melting point | SMILES
13 | > 5000 | 1900 | > 5000 | > 5000 | – | Cc1cc2cnc(Nc3ccc(N4C[C@@H](C)N[C@@H](C)C4)cc3)nc2nc1NC(=O)NC1CC1 [Compound 120, 1-Cyclopropyl-3-{2-[4-(cis-3,5-dimethyl-piperazin-1-yl)-phenylamino]-6-methyl-pyrido[2,3-d]pyrimidin-7-yl}-urea]
14 | 24 | 4 | 30 | 53 | – | O=C(Nc1ccc2cnc(Nc3ccc(N4CCNCC4)cc3)nc2n1)NC1CCCC1 [Compound 51, 1-Cyclopentyl-3-[2-(4-piperazin-1-yl-phenylamino)-pyrido[2,3-d]pyrimidin-7-yl]-urea]
15 | 113 | 18 | 98 | 257 | – | CC(C)NC(=O)Nc1ccc2cnc(Nc3ccc(N4CCNCC4)cc3)nc2n1 [Compound 48, 1-Isopropyl-3-[2-(4-piperazin-1-yl-phenylamino)-pyrido[2,3-d]pyrimidin-7-yl]-urea]
16 | 350 | – | 440 | – | 170 °C (dec.) | C[C@@H]1CN(c2ccc(Nc3ncc4ccc(N(C)C(=O)NC5CCCCC5)nc4n3)cc2)C[C@H](C)N1 [Compound 106, 3-Cyclohexyl-1-{2-[4-(cis-3,5-dimethyl-piperazin-1-yl)-phenylamino]-pyrido[2,3-d]pyrimidin-7-}-1-methyl-urea]
17 | 22 | 7 | 51 | 94 | – | CC1(C)CN(c2ccc(Nc3ncc4ccc(NC(=O)NC5CCCCC5)nc4n3)cc2)CCN1 [Compound 115, 1-Cyclohexyl-3-{2-[4-(3,3-dimethyl-piperazin-1-yl)-phenylamino]-pyrido[2,3-d]pyrimidin-7-yl}-urea]
18 | > 5000 | 313 | 3750 | > 5000 | – | Cc1cc2cnc(Nc3ccc(N4C[C@@H](C)N[C@@H](C)C4)cc3)nc2nc1NC(=O)NC1CCCCC1 [Compound 116, 1-Cyclohexyl-3-{2-[4-(cis-3,5-dimethyl-piperazin-1-yl)-phenylamino]-6-methyl-pyrido[2,3-d]pyrimidin-7-yl}-urea]
19 | > 5000 | 79 | 3800 | > 5000 | – | Cc1cc2cnc(Nc3ccc(N4CCNCC4)cc3)nc2nc1NC(=O)NC(C)(C)C [Compound 118]
20 | 153 | 35 | 415 | 265 | – | CC1(C)CN(c2ccc(Nc3ncc4cc(F)c(NC(=O)NC5CCCCC5)nc4n3)cc2)CCN1 [Compound 100, 1-Cyclohexyl-3-{2-[4-(3,3-dimethyl-piperazin-1-yl)-phenylamino]-6-fluoro-pyrido[2,3-d]pyrimidin-7-yl}-urea]
21 | 3590 | 165 | 4500 | 3130 | – | C[C@@H]1CN(c2ccc(Nc3ncc4cc(F)c(NC(=O)NC(C)(C)C)nc4n3)cc2)C[C@H](C)N1 [Compound 102, 1-tert-Butyl-3-{2-[4(cis-3,5-dimethyl-piperazin-1-yl)-phenylamino]-6-fluoro-pyrido[2,3-d]pyrimidin-7-yl}-urea]
22 | 1950 | 19 | 1650 | 1730 | – | CCN(C(=O)NC1CCCCC1)c1ccc2cnc(Nc3ccc(N4CCNCC4)cc3)nc2n1 [Compound 107, 3-Cyclohexyl-1-ethyl-1-[2-(4-piperazin-1-yl-phenylamino)-pyrido[2,3-d]pyrimidin-7-yl]-urea]
23 | 2030 | 67 | 3050 | 2420 | – | CCN(C(=O)NC(C)(C)C)c1ccc2cnc(Nc3ccc(N4C[C@@H](C)N[C@@H](C)C4)cc3)nc2n1 [Compound 108, 3-tert-Butyl-1-{2-[4(cis-3,5-dimethyl-piperazin-1-yl)-phenylamino]-pyrido[2,3-d]pyrimidin-7-yl}-1-ethyl-urea]
